What was measured:
acute toxicity = details: rat, in vivo, po; H-Wistar rats of both sexes, single 500 mg./kg. p.o., observed for 14 days; read-out: Perished animals (%)
Experimental: The acute toxicity of the compounds of the formula (I) was tested on H-Wistar rats of both sexes, weighing 160 to 180 g. each. The compounds were administered in a single 500 mg./kg. dose, orally.

aminopyrine demethylase = aminopyrine demethylase activity of liver after oral treatment; format: in vivo, rat; details: female H.Wistar rats, single 40 mg./kg. oral dose, liver taken two hours after treatment, results in % of the control (control = 260.7 ± 11.2 nmoles/g/min), mean ± S.E., the values are: activity
Experimental: The enzyme inhibiting activity of the compounds of the formula (I) was further tested by determining the activity of the polysubstrate monooxygense enzyme system of the liver after treatment with the placebo and the compounds according to the invention, respectively. Female H.Wistar rats weighing 50 to 60 g. each were administered a single 40 mg./kg. dose of the test compounds, orally. Two hours after treatment the animals were decapitated and the livers were eliminated. After rinsing with a physiological saline solution at 0° C., drying and weighing, the livers were homogenized in a 0.1 molar Tris-HCl buffer (pH=7.2), containing 1.15% of potassium chloride at 0° C., centrifuged at 9000 g for 20 minutes, and the supernatant (postmitochondrial fraction) was used for further investigations. The microsomal fraction was prepared following the method developed by Cinti D. L. et al.: Biochem. Pharmacol., 21, 3249 (1972). The activity of aniline hydroxylase was determined from the velocity of p-amino-phenol formation according to Chabra R. S. et al.: Toxicol. Appl. Pharmacol., 22, 50 ( 1972). The activity of the aminopyrine demethylase was measured from the amount of the formaldehyde formed, according to Gourlay G. K. et al.: Biochem. Pharmacol., 27, 965 (1978). The control groups were treated with a placebo.

hexobarbital oxidase = experiment: hexobarbital narcosis period (change of hexobarbital oxidase activity in vivo); design: species or system rat; details: mean ± S.E.; for Hexobarbital Narcosis period in % of the control, 1 hour: 1 hour after administration; for Hexobarbital Narcosis period in % of the control (24 hours): 24 hours after administration
Experimental: The enzyme inhibiting activity of the new compounds was tested in vivo, by measuring the change of hexobarbital oxidase activity. Female Hann.-Wistarrats, each weighing 50 to 60 g. were treated orally with a single 40 mg./kg. dose of the test compound. 1 and 24 hours after the administration of the active ingredient, the animals were narcotized with a 60 mg./kg. i.v. dosage of hexobarbital sodium, and the time elapsed until complete wakening was measured (Noordhoek, J.: Eur. J. Pharmacol., 3, 242 (1968)). The data were recorded, and the mean values, the standard errors, as well as the percentage increase with respect to the controls were calculated for each group. […] The hexobarbital concentration of the plasm, measured on the instant wakening, was the same for both the treated and the control animals, and thus the increase of narcosis period was not due to a certain central nervous interaction (Jori, A. et al.: Biochem. Pharmacol., 19, 2687 (1970)).

[1] = from H. Ippen: Index Pharmacorum (1970); cited from earlier work
[2] = female Hann.-Wistar rats, single 40 mg./kg. oral dose, hexobarbital sodium 60 mg./kg. i.v.
[3] = reference compound, dose 100 mg/kg

Structure (SMILES)	mortality at 336 h (acute toxicity)	Aminopyrine demethylase (aminopyrine demethylase)	Hexobarbital Narcosis period in % of the control, 1 hour (hexobarbital oxidase; [2])	Hexobarbital Narcosis period in % of the control (24 hours) (hexobarbital oxidase; [2])	anticonvulsive side effect [1]	Hexobarbital Narcosis period in % of the control, 1 hour (hexobarbital oxidase; [3])	Hexobarbital Narcosis period in % of the control (24 hours) (hexobarbital oxidase; [3])
CCC(O)(c1ccc(Cl)cc1)c1ccc(OCc2cccc(C)n2)cc1 (centres unmarked) [A, 2-methyl-6-{4-[1-(4-chlorophenyl)-1-hydroxypropyl]-phenoxymethyl}-pyridine]	0%	55 ± 4.4%	259 ± 11.4 % of the control	155 ± 9.6 % of the control			
CCC(O)(c1ccc(OCc2cccc(C)n2)cc1)c1cc(C)ccc1C (centres unmarked) [B, 2-methyl-6-{4-[1-(2,5-dimethylphenyl)-1-hydroxypropyl]-phenoxymethyl}-pyridine]	0%	63 ± 4.4%	135 ± 6.7 % of the control	174 ± 7.2 % of the control			
CCCC(C(=O)OCCN(CC)CC)(c1ccccc1)c1ccccc1 [Proadiphene, (2-diethylaminoethyl)-α,α-diphenyl valerate, reference compound]					exerted an anticonvulsive side effect	241 ± 9.6 % of the control	44 ± 5.7 % of the control
